The values below are quoted from earlier work in patent publication US8257686B2, “Compositions and methods relating to prevention of chemotherapy-induced alopecia” (HSF Pharmaceuticals S.A., priority 2000, dated 2012).

SMILES strings stand for the structures.

This data set concerns chemotherapy-induced hair loss. The settings on record: review Dorr 1998; Sredni et al. 1996.
For the molecule `C=C1/C(=C\C=C2/CCC[C@]3(C)[C@@H]([C@H](C)CCCC(C)(C)O)CC[C@@H]23)C[C@@H](O)C[C@@H]1O` [1,25-dihydroxyvitamin D3], the “prevention of chemotherapy-induced hair loss” value is reported as “showed a marked sex preference”. In the case of `Cl[TeH]1(Cl)(Cl)OCCO1` [AS101, ammonium trichloro (dioxy-ethylene-0,0′) tellurate], the “prevention of chemotherapy-induced hair loss” value was “More promising results”. As for `Cc1c(C)c2c(c(C)c1O)CC[C@@](C)(CCC[C@H](C)CCC[C@H](C)CCCC(C)C)O2` [alpha-tocopherol], the “prevention of chemotherapy-induced hair loss” value is “failed”.

For the molecule `C=C1/C(=C\C=C2/CCC[C@]3(C)[C@@H]([C@H](C)CCCC(C)(C)O)CC[C@@H]23)C[C@@H](O)C[C@@H]1O` [calcitriol], the “prevention of chemotherapy-induced hair loss” value is listed as “failed”.
